Measured values reported in patent publication US20140023611A1 (priority 2010, published 2014).
“And” between values parts separate entries of the source, which are not always exact repeats. Equal values may be shown once. Where a name gives a salt, the structure may show the parent alone.

What was measured:
[1] = Stability of compounds in simulated gastric fluid (SGF); type: in vitro ADME; settings: simulated gastric fluid (3 mg/mL pepsin), incubation time 6 hr, relative to t=0
Method in brief: (§1)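 Compounds at […] were incubated 3 or 6 hr in USP simulated gastric fluid with 3 mg/mL pepsin or simulated intestinal fluid with 3 mg/mL pancreatin. Remaining compound was quantified by HPLC-UV or HPLC-MS peak area % and reported as percent of the t=0 level in the same medium.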

[2] = tested on: Uptake of Phosphorus from the Intestine; assay: In vivo co-dosing in chow (urine P out / P consumed); settings: Rattus norvegicus, feed or water, rats, compound in chow, read-out: Mean % inhibition Urine Pout/P consumed; for inhibition in vivo at 100 mg/kg/day: mean drug dose 100 mg/kg/day; for inhibition in vivo at 120 mg/kg/day: mean drug dose 120 mg/kg/day
Method in brief: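 Male 7-week-old rats were fed a synthetic diet (0.6% P, 0.6% Ca) for 4 days, then housed in metabolic cages with compound in chow at 1.3 mg/g (nominal 100 mg/kg/day). Urinary P was measured by ion chromatography over 24–96 h and related to dietary P consumed. Percentage inhibition was calculated against no-drug controls.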

[3] = Fecal recovery of orally administered compounds; type: in vivo, Sprague-Dawley rats; settings: Structure (I) examples, Table 16; rat, oral gavage, feces collected until 48 hr after dosing
Method in brief: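 After oral dosing, feces collected in metabolic cages up to 48 h, lyophilized and ground. Duplicate weighed portions per animal extracted with organic solvent under non-compound-optimized conditions, so recovery may be a minimal estimate.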

rat NaP2b (SLC34A2) = biological target: T1, rat NaP2b (SLC34A2) (Rattus norvegicus, UniProt Q9JJ09); assay: Inhibition of NaP2b-mediated Pi (33P) uptake in transfected HEK293 cells, rat NaP2b; type: cell-based; settings: 33P Pi uptake, 0.1 mM phosphate, value given as pIC50 range
T1 construct: host or cells: HEK293
T1 sequence (Q9JJ09 1-695): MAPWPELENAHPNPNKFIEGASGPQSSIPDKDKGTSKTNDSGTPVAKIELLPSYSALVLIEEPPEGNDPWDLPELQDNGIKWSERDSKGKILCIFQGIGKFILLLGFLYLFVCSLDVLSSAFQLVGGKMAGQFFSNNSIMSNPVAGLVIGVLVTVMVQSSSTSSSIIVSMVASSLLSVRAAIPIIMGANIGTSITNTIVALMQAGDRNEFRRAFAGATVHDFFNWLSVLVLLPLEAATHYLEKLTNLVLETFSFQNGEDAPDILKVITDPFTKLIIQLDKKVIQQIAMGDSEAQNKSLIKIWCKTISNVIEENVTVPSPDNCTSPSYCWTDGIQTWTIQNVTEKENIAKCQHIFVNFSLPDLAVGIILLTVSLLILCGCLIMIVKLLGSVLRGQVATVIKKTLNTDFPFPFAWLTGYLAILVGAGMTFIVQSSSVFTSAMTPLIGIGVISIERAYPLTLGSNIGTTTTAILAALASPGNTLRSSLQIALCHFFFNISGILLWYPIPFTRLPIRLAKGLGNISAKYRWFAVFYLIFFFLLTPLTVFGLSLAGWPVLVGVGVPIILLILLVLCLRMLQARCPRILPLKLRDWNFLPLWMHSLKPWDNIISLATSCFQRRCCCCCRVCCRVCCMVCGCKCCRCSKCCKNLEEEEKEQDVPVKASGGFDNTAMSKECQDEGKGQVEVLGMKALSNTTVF
Method in brief: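 The cells transiently expressed NaP2b after Lipofectamine transfection. Each compound was run in duplicate over twelve concentrations, 0.1 nM–30 uM.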

[4] = Stability of compounds in simulated intestinal fluid (SIF); type: in vitro ADME; settings: simulated intestinal fluid (3 mg/mL pancreatin), incubation time 6 hr, relative to t=0
Method in brief: as §1

| Compound | % remaining, SGF [1] [%] | inhibition in vivo at 100 mg/kg/day [2] [%] | % recovered in feces [3] | IC50 (rat NaP2b (SLC34A2)) [µM] | % remaining, SIF [4] | inhibition in vivo at 120 mg/kg/day [2] [%] | inhibition in vivo at 130 mg/kg/day ([2]; mean drug dose 130 mg/kg/day) [%] | inhibition in vivo at 50 mg/kg/day ([2]; mean drug dose 50 mg/kg/day) [%] |
| --- | --- | --- | --- | --- | --- | --- | --- | --- |
| CCN(CC)c1ccc(NC(=O)c2cccc(CSCCOCCOCCOCCOCCC(=O)O)c2)c(-c2cc(C(=O)NCc3cccc(C(F)(F)F)c3)ccn2)c1 [Example 162, 1-(3-(4-(diethylamino)-2-(4-(3-(trifluoromethyl)benzylcarbamoyl)pyridin-2-yl)phenylcarbamoyl)phenyl)-5,8,11,14-tetraoxa-2-thiaheptadecan-17-oic acid] | >80 | 10 to 30 | 20-80% | < 1 | >80% |  |  |  |
| O=C(O)CCOCCOCCOCCNC(=O)c1cccc2c1ccn2Cc1cccc(C(=O)Nc2ccc(N3CCCCC3)cc2-c2cc(C(=O)N[C@H]3CCCc4ccccc43)ccn2)c1 [Example 181, (S)-1-oxo-1-(1-(3-(4-(piperidin-1-yl)-2-(4-(1,2,3,4-tetrahydronaphthalen-1-ylcarbamoyl)pyridin-2-yl)phenylcarbamoyl)benzyl)-1H-indol-4-yl)-5,8,11-trioxa-2-azatetradecan-14-oic acid] | >80 |  | >80% | < 1 | >80% | ≤ 10 |  |  |
| CCN(CC)c1ccc(NC(=O)c2cccc(CCCOCCOCCOCCOCCOCCOCCOCCOCCOC)c2)c(-c2cc(C(=O)N[C@H]3CCCc4ccccc43)ccn2)c1 [Example 261, (S)-2-(2-(3-(2,5,8,11,14,17,20,23,26-nonaoxanonacosan-29-yl)benzamido)-5-(diethylamino)phenyl)-N-(1,2,3,4-tetrahydronaphthalen-1-yl)isonicotinamide] | >80 | 10 to 30 | <20% | < 1 | 60-80% and >80% |  |  |  |
| CCN(CC)c1ccc(NC(=O)c2cccc(CCCOCCOCCOCCOCCOCCOCCOCCOCCOC)c2)c(-c2cc(C(=O)NCc3cccc(C(F)(F)F)c3)ccn2)c1 [Example 269, 2-(2-(3-(2,5,8,11,14,17,20,23,26-nonaoxanonacosan-29-yl)benzamido)-5-(diethylamino)phenyl)-N-(3-(trifluoromethyl)benzyl)isonicotinamide] | >80 | ≤ 10 | <20% | 1 to 7.94 | >80% |  |  |  |
| CCN(CC)c1ccc(NC(=O)c2cccc(C(=O)N(C)CCN(CCOC)CCOCCOCCOCCOCCOCCOCCOC)c2)c(-c2cc(C(=O)NCc3cccc(C(F)(F)F)c3)ccn2)c1 [Example 335, N^1-(4-(Diethylamino)-2-(4-(3-(trifluoromethyl)benzylcarbamoyl)pyridin-2-yl)phenyl)-N^3-(23-(2-methoxyethyl)-2,5,8,11,14,17,20-heptaoxa-23-azapentacosan-25-yl)-N^3-methylisophthalamide, trifluoroacetate] | >80 | ≤ 10 | >80% | 1 to 7.94 | >80% |  |  |  |
| CCN(CC)c1ccc(NC(=O)c2cccc(CSCCOCCOCCOCCOCCOCCOCCOCCOC)c2)c(-c2cc(C(=O)N[C@H]3CCCc4ccccc43)ccn2)c1 [Example 286, (S)-2-(2-(3-(2,5,8,11,14,17,20,23-octaoxa-26-thiaheptacosan-27-yl)benzamido)-5-(diethylamino)phenyl)-N-(1,2,3,4-tetrahydronaphthalen-1-yl)isonicotinamide] | >80 |  | <20% | < 1 | >80% |  | 10 to 30 |  |
| CCN(CC)c1ccc(NC(=O)c2cccc(CCCOCCOCCOCCOCCC(=O)O)c2)c(-c2cc(C(=O)NCc3cccc(C(F)(F)F)c3)ccn2)c1 [Example 251, 16-(3-(4-(diethylamino)-2-(4-(3-(trifluoromethyl)benzylcarbamoyl)pyridin-2-yl)phenylcarbamoyl)phenyl)-4,7,10,13-tetraoxahexadecan-1-oic acid] | >80 |  | >80% | 1 to 7.94 | >80% |  |  | ≤ 10 |
| CCCN(CCC)c1ccc(NC(=O)c2cccc(COCCOCCOCCOCCOCCOCCOCCOCCOC)c2)c(-c2cc(C(=O)NCc3cccc(C(F)(F)F)c3)ccn2)c1 [Example 200, 2-(2-(3-(2,5,8,11,14,17,20,23,26-nonaoxaheptacosyl)benzamido)-5-(dipropylamino)phenyl)-N-(3-(trifluoromethyl)benzyl)isonicotinamide] | >80 | 10 to 30 | 20-80% | 1 to 7.94 | >80% |  |  |  |
| CCN(CC)c1ccc(NC(=O)c2cccc(CSCCOCCOCCOCCOCCOCCOCCOCCOC)c2)c(-c2cc(C(=O)NCc3cccc(C(F)(F)F)c3)ccn2)c1 [Example 265, 2-(2-(3-(2,5,8,11,14,17,20,23-octaoxa-26-thiaheptacosan-27-yl)benzamido)-5-(diethylamino)phenyl)-N-(3-(trifluoromethyl)benzyl)isonicotinamide] | >80 |  | <20% | < 1 | >80% | ≤ 10 |  |  |
